Broadly, the EC90 is the concentration needed for an effect of 90%.

Data on 30 compounds can be found in patent US20120202794A1 (priority 2011, published 2012).

For one data set, the system named is HCV Replicon 1b. Kind of data set: HCV inhibition assay, HCV replicon 1b (Clone A or ET-lunet cells; RT-PCR or luciferase reporter). The class given is cell-based. Particulars: Hepatitis C virus, 96 h, HCV replicon 1b; 4 days incubation; read-out: Replicon 1b potency EC90. Summed up:
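Inhibition read either as luciferase signal (ET replicon) or as HCV 5′-NTR RNA by RT-PCR relative to rRNA, % = (1−2^−ΔΔCt)×100, against DMSO controls, giving EC50 and EC90. Cells: Clone A or ET-lunet, seeded 1500 or 3000/well, exposed 4 days at 37 °C, 5% CO2, 0.5% DMSO.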
For orientation: In antiviral work, replicon cells carry a viral genome segment that copies itself.

Data set [1] in a line: Cell cytotoxicity assay (MTS), CC90 as reported in Table 1, cell line not stated. The class given is cell-based. Conditions: human; cell line not given. Summed up: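 MTS read-out (490 nm, 2 h dye step) after 8-day exposure at 37° C. Huh7, HepG2, BxPC3 were seeded at 2×10^3 and CEM at 5×10^3 cells/well, with compound serially diluted from 100 μM. CC90 comes from comparison with untreated control wells.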

As for `CC(C)C[C@H]1C(=O)N[C@@H](C2CCCC2)CN1Cc1cc(-c2ccc(Cl)cc2)on1` [Compound 212, (3S,6S)-4-((5-(4-chlorophenyl)isoxazol-3-yl)methyl)-6-cyclopentyl-3-isobutylpiperazin-2-one], the concentration for an effect of 90% (EC90) in the data set with HCV Replicon 1b stood at 260 nM. This compound registered a CC90 at 8 days in data set [1] greater than 10 µM.
On the same counts, the results for `CCC(C)[C@H]1CN(Cc2cc(-c3ccc(F)cc3)on2)[C@@H](CC(C)C)C(=O)N1` (stereo partly drawn) [Compound 214] are 720 nM and greater than 10 µM.
With `CC(C)C[C@H]1C(=O)N[C@@H](c2ccccc2)CN1Cc1cc(-c2ccc(F)cc2)on1` [Compound 215, (3S,6S)-4-((5-(4-fluorophenyl)isoxazol-3-yl)methyl)-3-isobutyl-6-phenylpiperazin-2-one], the EC90 in the data set on HCV Replicon 1b was determined as 190 nM. Further, the CC90 at 8 days in data set [1] was greater than 10 µM.
On the same counts, the results for `CC(C)C[C@H]1C(=O)N[C@@H](C2CC2)CN1Cc1cc(-c2ccc(F)cc2)on1` [Compound 216, (3S,6S)-6-cyclopropyl-4-((5-(4-fluorophenyl)isoxazol-3-yl)methyl)-3-isobutylpiperazin-2-one] are 1600 nM and greater than 10 µM.
The like results for `CSC[C@H]1CN(Cc2cc(-c3ccc(F)cc3)on2)[C@@H](CC(C)C)C(=O)N1` [Compound 217, (3S,6R)-4-[5-(4-Fluoro-phenyl)-isoxazol-3-ylmethyl]-3-isobutyl-6-methylsulfanylmethyl-piperazin-2-one] were, in that order, 820 nM and greater than 10 µM.
The like results for `CSC[C@H]1CN(Cc2cc(-c3ccc(Cl)cc3)on2)[C@@H](CC(C)C)C(=O)N1` [Compound 218, (3S,6R)-4-((5-(4-chlorophenyl)isoxazol-3-yl)methyl)-3-isobutyl-6-((methylthio)methyl)piperazin-2-one] were, in that order, 750 nM and greater than 10 µM.
In the case of `CC(C)C[C@H]1C(=O)N[C@@H](c2ccccc2)CN1Cc1cc(-c2ccc(Cl)cc2)on1` [Compound 219, (3S,6S)-4-((5-(4-chlorophenyl)isoxazol-3-yl)methyl)-3-isobutyl-6-phenylpiperazin-2-one], in the data set on HCV Replicon 1b, the EC90 came out at 4500 nM. In data set [1], this compound had a CC90 at 8 days greater than 10 µM.
Turning to `CC(C)C[C@H]1CN(Cc2ccc(F)cc2C(F)(F)F)[C@@H](CC(C)C)C(=O)N1` [Compound 220, (3S,6S)-4-(4-fluoro-2-(trifluoromethyl)benzyl)-3,6-diisobutylpiperazin-2-one], the EC90 with HCV Replicon 1b was determined as 8350 nM. Besides, in data set [1], the CC90 at 8 days is greater than 10 µM.
On the same counts, the results for `CC(C)C[C@H]1CN(Cc2ccc(F)c(C(F)(F)F)c2)[C@@H](CC(C)C)C(=O)N1` [Compound 221, (3S,6S)-4-(4-fluoro-3-(trifluoromethyl)benzyl)-3,6-diisobutylpiperazin-2-one] are greater than 10000 nM and greater than 10 µM.
On the same counts, the results for `CC(C)C[C@H]1CN(Cc2cc(F)ccc2F)[C@@H](CC(C)C)C(=O)N1` [Compound 222, (3S,6S)-4-(2,5-difluorobenzyl)-3,6-diisobutylpiperazin-2-one] are 9700 nM and greater than 10 µM.
The like results for `CC(C)C[C@H]1CN(Cc2cc(C(F)(F)F)cc(C(F)(F)F)c2)[C@@H](CC(C)C)C(=O)N1` [Compound 223, (3S,6S)-4-(3,5-Bis-trifluoromethyl-benzyl)-3,6-diisobutyl-piperazin-2-one] were, in that order, 4490 nM and greater than 10 µM.
For `CC(C)C[C@H]1CN(Cc2c(F)cccc2F)[C@@H](CC(C)C)C(=O)N1` [Compound 224, (3S,6S)-4-(2,6-Difluoro-benzyl)-3,6-diisobutyl-piperazin-2-one], in the data set with HCV Replicon 1b, the EC90 turned out to be 8360 nM. Further, the CC90 at 8 days in data set [1] was greater than 10 µM.
The like results for `CCc1ccc(CN2C[C@H](CC(C)C)NC(=O)[C@@H]2CC(C)C)cc1` [Compound 225, (3S,6S)-4-(4-Ethyl-benzyl)-3,6-diisobutyl-piperazin-2-one] were, in that order, 3510 nM and greater than 10 µM.
On the same counts, the results for `CC(C)C[C@H]1CN(Cc2ccc(Cl)c(Cl)c2)[C@@H](CC(C)C)C(=O)N1` [Compound 226, (3S,6S)-4-(3,4-Dichloro-benzyl)-3,6-diisobutyl-piperazin-2-one] are 8870 nM and greater than 10 µM.
The like results for `CC(C)C[C@H]1CN(Cc2ccc(F)c(Cl)c2)[C@@H](CC(C)C)C(=O)N1` [Compound 227, (3S,6S)-4-(3-Chloro-4-fluoro-benzyl)-3,6-diisobutyl-piperazin-2-one] were, in that order, greater than 10000 nM and greater than 10 µM.
With `CC(C)C[C@H]1CN(Cc2ccc(OC(F)(F)F)cc2)[C@@H](CC(C)C)C(=O)N1` [Compound 228, (3S,6S)-3,6-Diisobutyl-4-(4-trifluoromethoxy-benzyl)-piperazin-2-one], the concentration for an effect of 90% (EC90) with HCV Replicon 1b came to 3260 nM. The same compound returned a CC90 at 8 days in data set [1] greater than 10 µM.
On the same counts, the results for `CC(C)C[C@H]1CN(Cc2cc(C(F)(F)F)ccc2Cl)[C@@H](CC(C)C)C(=O)N1` [Compound 229, (3S,6S)-4-(2-Chloro-5-trifluoromethyl-benzyl)-3,6-diisobutyl-piperazin-2-one] are 5120 nM and greater than 10 µM.
The like results for `CCC[C@H]1CN(C(=O)[C@@H]2C[C@H]2c2ccccc2)[C@@H](CC(C)C)C(=O)N1` [Compound 230, (3S,6S)-3-isobutyl-4-((1R,2R)-2-phenylcyclopropanecarbonyl)-6-propylpiperazin-2-one] were, in that order, 570 nM and greater than 10 µM.
The like results for `CC(C)C[C@H]1C(=O)N[C@@H](C2CCCCC2)CN1C(=O)[C@@H]1C[C@H]1c1ccccc1` [Compound 231, (3S,6S)-6-cyclohexyl-3-isobutyl-4-((1R,2R)-2-phenylcyclopropanecarbonyl)-piperazin-2-one] were, in that order, 930 nM and greater than 10 µM.
Turning to `CC(C)C[C@H]1C(=O)N[C@@H](C2CCCC2)CN1C(=O)[C@@H]1C[C@H]1c1ccccc1` [Compound 232, (3S,6S)-6-cyclopentyl-3-isobutyl-4-((1R,2R)-2-phenylcyclopropanecarbonyl)-piperazin-2-one], in the data set on HCV Replicon 1b, the EC90 turned out to be 690 nM. Besides, the CC90 at 8 days in data set [1] is greater than 10 µM.
For `CC(C)C[C@H]1C(=O)N[C@@H](C(C)C)CN1C(=O)[C@@H]1C[C@H]1c1ccccc1` [Compound 233, (3S,6S)-3-isobutyl-6-isopropyl-4-((1R,2R)-2-phenylcyclopropanecarbonyl)piperazin-2-one], in the data set on HCV Replicon 1b, the EC90 was determined as 930 nM. The CC90 at 8 days in data set [1] is greater than 10 µM.
As to `CC(C)C[C@H]1C(=O)N[C@@H](c2ccccc2)CN1C(=O)[C@@H]1C[C@H]1c1ccccc1` [Compound 234, (3S,6S)-3-isobutyl-6-phenyl-4-((1R,2R)-2-phenylcyclopropanecarbonyl)piperazin-2-one], the EC90 in the data set on HCV Replicon 1b is 300 nM. In addition, the CC90 at 8 days in data set [1] is greater than 10 µM.
The like results for `CC(C)C[C@H]1C(=O)N[C@@H](C2CC2)CN1C(=O)[C@@H]1C[C@H]1c1ccccc1` [Compound 235, (3S,6S)-6-cyclopropyl-3-isobutyl-4-((1R,2R)-2-phenylcyclopropanecarbonyl)-piperazin-2-one] were, in that order, 4200 nM and greater than 10 µM.
The like results for `CC(C)C[C@H]1CN(C(=O)[C@@H]2C[C@H]2c2ccc(F)cc2)[C@@H](CC(C)C)C(=O)N1` [Compound 236, (3S,6S)-4-[(1R,2R)-2-(4-Fluoro-phenyl)-cyclopropanecarbonyl]-3,6-diisobutyl-piperazin-2-one] were, in that order, 80 nM and greater than 10 µM.
On the same counts, the results for `CC(C)C[C@H]1CN(C(=O)[C@@H]2C[C@H]2c2ccc(Cl)cc2)[C@@H](CC(C)C)C(=O)N1` [Compound 237, (3S,6S)-4-[(1R,2R)-2-(4-Chloro-phenyl)-cyclopropanecarbonyl]-3,6-diisobutyl-piperazin-2-one] are 270 nM and greater than 10 µM.
On to `CC(C)C[C@H]1CN(C(=O)[C@@H]2C[C@H]2c2ccc(F)c(F)c2)[C@@H](CC(C)C)C(=O)N1` [Compound 238, (3S,6S)-4-[(1R,2R)-2-(3,4-Difluoro-phenyl)-cyclopropanecarbonyl]-3,6-diisobutyl-piperazin-2-one], for which the EC90 in the data set with HCV Replicon 1b amounted to 590 nM. The compound further had a CC90 at 8 days in data set [1] greater than 10 µM.
The like results for `COc1ccc([C@@H]2C[C@H]2C(=O)N2C[C@H](CC(C)C)NC(=O)[C@@H]2CC(C)C)cc1` [Compound 239, (3S,6S)-3,6-Diisobutyl-4-[(1R,2R)-2-(4-methoxy-phenyl)-cyclopropanecarbonyl]-piperazin-2-one] were, in that order, 960 nM and greater than 10 µM.
On to `CCC[C@H]1CN(C(=O)[C@@H]2C[C@H]2c2ccc(F)cc2)[C@@H](CC(C)C)C(=O)N1` [Compound 240, (3S,6S)-4-[(1R,2R)-2-(4-Fluoro-phenyl)-cyclopropanecarbonyl]-3-isobutyl-6-propyl-piperazin-2-one], for which the EC90 in the data set with HCV Replicon 1b turned out to be 100 nM. The compound further gave a CC90 at 8 days in data set [1] greater than 10 µM.
The like results for `CC(C)C[C@H]1C(=O)N[C@@H](C2CCCCC2)CN1C(=O)[C@@H]1C[C@H]1c1ccc(F)cc1` [Compound 241, (3S,6S)-6-Cyclohexyl-4-[(1R,2R)-2-(4-fluoro-phenyl)-cyclopropanecarbonyl]-3-isobutyl-piperazin-2-one] were, in that order, 150 nM and greater than 10 µM.
On the same counts, the results for `CC(C)C[C@H]1C(=O)N[C@@H](C2CCCC2)CN1C(=O)[C@@H]1C[C@H]1c1ccc(F)cc1` [Compound 242, (3S,6S)-6-Cyclopentyl-4-[(1R,2R)-2-(4-fluoro-phenyl)-cyclopropanecarbonyl]-3-isobutyl-piperazin-2-one] are 60 nM and greater than 10 µM.
